Data set [1] has as its system XBP1 mRNA splicing in HEK293T cells. As to the kind of experiment: XBP1 mRNA splicing by RT-PCR in HEK293T cells. It counts as cell-based, human. The conditions noted are these: [AD60] = 1 μM, 4 hr. Here is the method: To examine the effects of IPA in living cells, we monitored the UPR in HEK293T cells using RT-PCR to measure splicing of XBP1 mRNA. […] At a concentration of 2 μM IPA, splicing was induced within 2 hr (lane 5). […] We used tunicamycin (Tm), which induces ER stress by blocking N-linked glycosylation, as a positive control to induce the UPR (Figure 2A, lanes 7, and Figure 2B, lane 4).
Cells were lysed and total RNA was collected (Total RNA Kit 1, EZ-RNA, EZNA [USA]). PolyA^+ mRNA was reverse transcribed with M-MLV (Invitrogen), and the resulting cDNA was used as a template for PCR amplification across the fragment of XBP1 cDNA containing the intron. Primers used to amplify human XBP1: 5′-[…]-3′ and 5′-[…]-3′. To amplify murine XBP1: 5′-[…]-3′ and 5′-[…]-3′. PCR conditions were as follows: 95°C for 5 min, 95°C for 1 min, 58°C for 30 s, 72°C for 30 s, and 72°C for 5 min, with 20 cycles of amplification. PCR products were resolved on a 2.5% agarose tris-acetate EDTA (TAE) gel. As previously reported, a hybrid amplicon species consisting of unspliced Xbp-1 annealed to spliced Xbp-1 can also be produced through this PCR reaction and was visible as a slower migrating band above the unspliced amplicon. The same cDNA was used as template for PCR of DERLIN-3 and HERPUD1, both ATF6 targets, and GAPDH, which was used as loading control. Primers used included the following: DERLIN-3, 5′-[…]-3′ and 5′-[…]-3′; HERPUD1-1, 5′-[…]-3′ and 5′-[…]-3′; GAPDH, 5′-[…]-3′ and 5′-[…]-3′. PCR conditions were: 95°C × 5 min, 95°C × 1 min, 56°C × 30 s, 72°C for 30 s for 25 cycles, 72°C for 5 min at 4°C. PCR products were resolved on a 2% agarose TAE gel.

The subject of data set [2] is XBP1 mRNA-splicing reporter (IRE1-mediated) in HEK293T cells. As to the kind of experiment: XBP1-luciferase splicing reporter in HEK293T cells. It counts as cell-based. The settings on record: Homo sapiens, HEK-293T, in the presence of Tm (2 μg/ml), read-out: IC50 of XBP1-luciferase-splicing reporter activation. From the text:
A plasmid encoding a modified ER stress reporter construct consisting of a C-terminally FLAG-tagged firefly luciferase coding sequence fused to an N-terminal hemagglutinin-tagged tandem repeat of a partial sequence of XBP1 of human origin lacking its DNA-binding domain and containing the IRE1-cognate intron (pCAX-HA-2xXBP1ΔDBD(anATG)-LUC-F, kind gift of Takao Iwawaki [[Hosoda et al., 2010]]), was used as a template to generate a retroviral expression construct. The coding sequence of the reporter was amplified by PCR using primers with engineered BamHI and EcoRI sites and was subsequently cloned into the cognate sites of the retroviral expression vector pBABE.puro (Addgene) to generate construct DAA-A171. DAA-A171 was used to generate recombinant retroviral particles using standard methods and the resulting retroviral supernatant was used to transduce HEK293T cells, which were then subsequently selected with puromycin to create a stable reporter cell line.

In the next data set the test system is HEK293T cells. As to the kind of experiment: HEK293T cell viability (CellTiter-Blue, 24 hr). It counts as cell-based. The settings on record: 24 hr, 1 μM, listed as GSK. Here is the method: HEK293T cells were grown in DMEM (Sigma) complete media containing 10% FBS, 10 units/ml penicillin (Invitrogen), and 10 μg/ml streptomycin (Invitrogen). Cells were plated at a density of 30,000 cells per well in 96-well black plates with clear flat bottoms (Corning, Sigma-Aldrich) 24 hr before the experiment. A 12-point semi-logarithmic dilution series of compounds was made starting at 30 μM not to exceed 0.1% DMSO after final dilution into the growth media. Viability assays were conducted over the course of 24 hr. Cell viability was determined using CellTiter-Blue (Promega) following the manufacturer's instructions. […] Experiments were done in triplicate, and mean values were computed for each data point.
A general note: Resazurin is reduced to fluorescent resorufin, in cell work by metabolically active cells.

Data set [3] relates to PERK and eIF2α phosphorylation in HEK293T cells. As to the kind of experiment: PERK mobility shift and eIF2α phosphorylation by immunoblotting in HEK293T cells. It counts as cell-based. Here is the method:
To evaluate effects of IPA on the PERK branch, we measured the phosphorylation state of PERK and eIF2α by Western blotting. […] We also monitored PERK activation by phosphorylation of eIF2α, detected with a phospho-eIF2α-specific antibody (Figure 3C).
Cells were lysed in 50 mM Tris-HCl, 2% SDS, 10% glycerol, 0.01% bromophenol blue, pH 6.8 supplemented with phosphatase inhibitors (Sigma) and protease inhibitors (Roche). 30 μg to 50 μg of total protein was loaded on each lane of 8% or 10% SDS-PAGE gels. The separated proteins were then transferred onto nitrocellulose membranes for immunoblotting. The following antibodies and dilutions were used: anti-β-actin 1:10,000 (A5441, Sigma), anti-total PERK at 1:1000 (C33E10, Cell Signaling Technology), anti-phospho eIF2α at 1:1000 (3597S, Cell Signaling Technology), anti-total eIF2α at 1:1000 (L57A5, Cell Signaling Technology). After overnight incubation with primary antibody, membranes were washed in PBS with 0.05% Tween and incubated in HRP-coupled secondary antibody anti-rabbit (611–1302, Rockland) or anti-mouse (610–1302, Rockland) diluted at 1:5000 in wash buffer. Immunoreactive bands were detected by chemiluminescence.
(In general: A western blot detects proteins with antibodies after separation by electrophoresis.)

The subject of data set [4] is protein translation in HEK293T cells. As to the kind of experiment: Metabolic labeling: [35S] methionine incorporation in HEK293T cells. It counts as cell-based. The settings on record: IPA 1 μM + GSK 1 μM. Here is the method:
HEK293T cells (500,000 cells/ml) were plated in 12-well flat bottom culture cluster dishes (Costar, Fisher Scientific) 24 hr before the experiment. IPA (1 μM), or a combination of IPA with GSK2606414 (TRC inc. […] Cells lysates were kept on ice for 30 min before high-speed centrifugation followed by denaturation at 95°C. The samples were resolved on an SDS-polyacrylamide gel, which were then stained with Coomassie blue to ascertain protein loading. […] The resulting autoradiograms were quantified using ImageQuant software (Molecular Dynamics).

A further data set has as its system PERK. Details: method as in Axten et al., 2012; Moreno et al., 2013. The conditions noted are these: ref Axten et al., 2012; Moreno et al., 2013; read-out: EC50 of PERK inhibition in cells; cited from earlier work.

“Also recorded” adds a separate entry of the source.

By IC50 is commonly meant the midpoint of a concentration-inhibition curve. Take `Nc1ncnc2c1c(-c1ccc(NC(=O)Nc3cccc(C(F)(F)F)c3)cc1)nn2C1CCCC1` [AD60, reference compound]: the “effect on Tm-induced XBP1 mRNA splicing” value in data set [1] (Tm) is listed as “inhibited Tm-induced XBP1 mRNA splicing”. Moreover, the “effect on IPA-induced XBP1 mRNA splicing” value in data set [1] (up to highest IPA concentration tested) is reported as “fully ablated IPA-induced XBP1 mRNA splicing”. For the same compound, the IC50 in data set [2] was found to be 750 nM.
The term EC50 denotes the midpoint of the concentration-response curve. `Cn1cc(-c2ccc3c(c2)CCN3C(=O)Cc2cccc(C(F)(F)F)c2)c2c(N)ncnc21` [GSK2606414, 7-methyl-5-(1-{[3-(trifluoromethyl)phenyl]acetyl}-2,3-dihydro-1H-indol-5-yl)-7H-p yrrolo[2,3-d]pyrimidin-4-amine, reference compound]: the “effect on HEK293T cell viability at 1 μM” value in the data set with HEK293T cells was “No effect on viability was observed; also recorded: no cell toxicity”. The “effect of compound alone on the PERK pathway” value in data set [3] (GSK 1 μM alone) was “No effect on the pathway was observed”. Also, the “effect on IPA-induced PERK and eIF2α phosphorylation” value in data set [3] (GSK 1 μM, IPA 0.5 and 1 μM) was “abolished IPA-induced PERK and eIF2α phosphorylation”. In addition, in data set [4], the “effect on translation in IPA-treated cells” value is “restored translation to baseline levels”. Also, in the data set on PERK, the EC50 is […].

The values above are taken from PMC4436593, “Endoplasmic reticulum stress-independent activation of unfolded protein response kinases by a small molecule ATP-mimic” (eLife, 2015).
